Measurements reported in PubChem BioAssay AID1963869 (Molecular Pharmacology Branch, DTP, NCI, 2024).
pIC50: −log10 of the molar value.

System: KRAS patient-derived spheroids with HUVEC/MSC, viability
Assay: Anticancer human tumor 323965-272-R-J2-PDC patient-derived pancreatic carcinoma cell line growth inhibition [KRAS2]
Details: for pIC50: curve of first compound; for viability, T/C: stronger effect = lower value
How it was run: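 KRAS-mutant tumor cells were grown as spheroids with HUVEC endothelial cells and human MSCs as stroma. Targeted agents were tested alone and with KRAS pathway inhibitors. Doses started at or near clinical Cmax, or 10 microM, descending half-log.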

[1] = second compound 0.0316 µM, first compound 0.0316 µM
[2] = second compound 0.0316 µM, first compound 0.1 µM
[3] = second compound 0.0316 µM, first compound 0.316 µM
[4] = second compound 0.0316 µM, first compound 1 µM
[5] = second compound 0.0316 µM, first compound 3.16 µM
[6] = second compound 0.0316 µM, first compound 10 µM
[7] = second compound 0.1 µM, first compound 0.0316 µM
[8] = second compound 0.1 µM, first compound 0.1 µM
[9] = second compound 0.1 µM, first compound 0.316 µM
[10] = second compound 0.1 µM, first compound 1 µM
[11] = second compound 0.1 µM, first compound 3.16 µM
[12] = second compound 0.1 µM, first compound 10 µM
[13] = second compound 0.316 µM, first compound 0.0316 µM
[14] = second compound 0.316 µM, first compound 0.1 µM
[15] = second compound 0.316 µM, first compound 0.316 µM
[16] = second compound 0.316 µM, first compound 1 µM
[17] = second compound 0.316 µM, first compound 3.16 µM
[18] = second compound 0.316 µM, first compound 10 µM
[19] = second compound 1 µM, first compound 0.0316 µM
[20] = second compound 1 µM, first compound 0.1 µM
[21] = second compound 1 µM, first compound 0.316 µM
[22] = second compound 1 µM, first compound 1 µM
[23] = second compound 1 µM, first compound 3.16 µM
[24] = second compound 1 µM, first compound 10 µM
[25] = second compound 3.16 µM, first compound 0.0316 µM
[26] = second compound 3.16 µM, first compound 0.1 µM
[27] = second compound 3.16 µM, first compound 0.316 µM
[28] = second compound 3.16 µM, first compound 1 µM
[29] = second compound 3.16 µM, first compound 3.16 µM
[30] = second compound 3.16 µM, first compound 10 µM
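Note: spheroids exposed to agents for 7 days.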
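Throughout, for viability, T/C: 100% = DMSO vehicle control viability.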

## COC(=O)c1ccc2c(C(=Nc3ccc(N(C)C(=O)CN4CCN(C)CC4)cc3)c3ccccc3)c(O)[nH]c2c1 + C=CC(=O)N1CCN(c2nc(OCC3CCCN3C)nc3c2CCN(c2cccc4cccc(C)c24)C3)CC1CC#N
Second compound 0.0316 µM
  pIC50: 5.79
Second compound 0.1 µM
  pIC50: 6.00
Second compound 0.316 µM
  pIC50: 6.41
Second compound 1 µM
  pIC50: 6.06
Second compound 3.16 µM
  pIC50: > 7.50
[1]
  viability, T/C: 76.7%
[2]
  viability, T/C: 73.2%
[3]
  viability, T/C: 69.8%
[4]
  viability, T/C: 61.8%
[5]
  viability, T/C: 35.4%
[6]
  viability, T/C: 19.6%
[7]
  viability, T/C: 66.7%
[8]
  viability, T/C: 68.8%
[9]
  viability, T/C: 65.8%
[10]
  viability, T/C: 49.3%
[11]
  viability, T/C: 28.1%
[12]
  viability, T/C: 19.7%
[13]
  viability, T/C: 63.8%
[14]
  viability, T/C: 67.3%
[15]
  viability, T/C: 49.6%
[16]
  viability, T/C: 38.3%
[17]
  viability, T/C: 20.6%
[18]
  viability, T/C: 18.2%
[19]
  viability, T/C: 64.9%
[20]
  viability, T/C: 62.8%
[21]
  viability, T/C: 58.4%
[22]
  viability, T/C: 49.5%
[23]
  viability, T/C: 23.4%
[24]
  viability, T/C: 16.8%
[25]
  viability, T/C: 26.2%
[26]
  viability, T/C: 25.4%
[27]
  viability, T/C: 30%
[28]
  viability, T/C: 15.6%
[29]
  viability, T/C: 9.71%
[30]
  viability, T/C: 5.57%

## COc1cc(Nc2ncc3c(n2)-c2ccc(Cl)cc2C(c2c(F)cccc2OC)=NC3)ccc1C(=O)O + C=CC(=O)N1CCN(c2nc(OCC3CCCN3C)nc3c2CCN(c2cccc4cccc(C)c24)C3)CC1CC#N
Second compound 0.0316 µM
  pIC50: > 7.50
Second compound 0.1 µM
  pIC50: 7.31
Second compound 0.316 µM
  pIC50: > 7.50
Second compound 1 µM
  pIC50: > 7.50
Second compound 3.16 µM
  pIC50: > 7.50
[1]
  viability, T/C: 60.1%
[2]
  viability, T/C: 43.8%
[3]
  viability, T/C: 31.4%
[4]
  viability, T/C: 36.3%
[5]
  viability, T/C: 46%
[6]
  viability, T/C: 56.2%
[7]
  viability, T/C: 58.1%
[8]
  viability, T/C: 35.9%
[9]
  viability, T/C: 29.7%
[10]
  viability, T/C: 30.7%
[11]
  viability, T/C: 39.4%
[12]
  viability, T/C: 48.8%
[13]
  viability, T/C: 48.5%
[14]
  viability, T/C: 33.3%
[15]
  viability, T/C: 26.6%
[16]
  viability, T/C: 27.8%
[17]
  viability, T/C: 35.8%
[18]
  viability, T/C: 43.5%
[19]
  viability, T/C: 55.3%
[20]
  viability, T/C: 32.6%
[21]
  viability, T/C: 20.4%
[22]
  viability, T/C: 30.5%
[23]
  viability, T/C: 38.6%
[24]
  viability, T/C: 46.6%
[25]
  viability, T/C: 21.1%
[26]
  viability, T/C: 13.2%
[27]
  viability, T/C: 10.3%
[28]
  viability, T/C: 19%
[29]
  viability, T/C: 20.5%
[30]
  viability, T/C: 15.5%

## O=C(c1cc(Cc2n[nH]c(=O)c3ccccc23)ccc1F)N1CCN(C(=O)C2CC2)CC1 + C=CC(=O)N1CCN(c2nc(OCC3CCCN3C)nc3c2CCN(c2cccc4cccc(C)c24)C3)CC1CC#N
Second compound 0.0316 µM
  pIC50: 5.09
Second compound 0.1 µM
  pIC50: < 5.00
Second compound 0.316 µM
  pIC50: 5.37
Second compound 1 µM
  pIC50: 5.20
Second compound 3.16 µM
  pIC50: > 7.50
[1]
  viability, T/C: 79.1%
[2]
  viability, T/C: 77.5%
[3]
  viability, T/C: 76.1%
[4]
  viability, T/C: 71.6%
[5]
  viability, T/C: 74.3%
[6]
  viability, T/C: 44.9%
[7]
  viability, T/C: 61.4%
[8]
  viability, T/C: 64.6%
[9]
  viability, T/C: 61.8%
[10]
  viability, T/C: 60.4%
[11]
  viability, T/C: 57.5%
[12]
  viability, T/C: 48.5%
[13]
  viability, T/C: 57.8%
[14]
  viability, T/C: 60.1%
[15]
  viability, T/C: 55.4%
[16]
  viability, T/C: 58%
[17]
  viability, T/C: 51.8%
[18]
  viability, T/C: 43.1%
[19]
  viability, T/C: 61.6%
[20]
  viability, T/C: 63.5%
[21]
  viability, T/C: 63.3%
[22]
  viability, T/C: 59.7%
[23]
  viability, T/C: 50.8%
[24]
  viability, T/C: 48.3%
[25]
  viability, T/C: 33.7%
[26]
  viability, T/C: 27.4%
[27]
  viability, T/C: 25.1%
[28]
  viability, T/C: 31.8%
[29]
  viability, T/C: 34.7%
[30]
  viability, T/C: 25.1%
